Assay results as given in patent US7662853B2, “Monoacetyldiacylglycerol derivative for the treatment of sepsis” (priority 2004, dated 2010).

Key:
T-cells = experiment: T-cell proliferation (3H-thymidine incorporation, SI); assay type: cell-based, C57BL/6 mice; settings: 1 μg/ml, 7th day, CPM in sample/CPM in control
Description: Splenocytes were collected from C57BL/6 mice (provided from Asan Institute for Life Sciences Animal Lab., Seoul, Korea) spleens. Then, single cell suspensions were obtained by repeated aspiration and flushing. Red blood cells were removed using ammonium chloride and then passed through nylon wool to remove debris and clumps. T-cells were purified using magnetic bead (MACS bead, Miltenyi Biotec, bergich gladbach, Germany) containing anti-goat IgG MACS bead, Miltenyi Biotec, bergich gladbach, Germany) or anti-mouse CD4 (MACS bead, Miltenyi Biotec, bergich gladbach, Germany) or anti-mouse CD8 antibody (MACS bead, Miltenyi Biotec, bergich gladbach, Germany) (Turner and Dockrell (1996) Immunology, 87: 339-342).
T cell suspensions were suspended in Isocove's modified Dulbecco's medium (IMDM, Gibco, Grand Island, N.Y.) supplemented with 10% fetal bovine serum (referred as ‘FBS’ hereinafter) (Gibco, Grand Island, N.Y.). […] On the 6th day, cells were incubated with 1 μCi ^3H-thymidine/well for 24 hours. On the 7th day, the cells were harvested and the […] (referred as ‘SI’ hereinafter) was calculated by the following Mathematical Formula 1. SI=^3H-thymidine absorbed by wells of experimental group (CPM in sample)/^3H-thymidine absorbed by wells of control group (CPM in control) [Mathematical Formula 1]

Monocytes = Monocytes proliferation (3H-thymidine incorporation, SI); assay type: cell-based; settings: human monocytes, 1 μg/ml, 7th day
Description: Monocytes were isolated from human whole blood using Histopaque 1077. And then, monocytes (5×10^6 cells/ml) were allowed to adhere to tissue culture flask for 3 hours in a 5% CO2 incubator. After 3 hours, non-adherent cells were removed and adherent cells were placed in 96-well plates in RPMI 1640 medium (GIBCO, Grand Island, N.Y.) supplemented with 10% FBS. 5×10^4 viable cells per well were cultured in 96-well plates, with 1 μg/ml of Compound 1˜5. On the 6th day, cells were incubated with 1 μCi ^3H-thymidine/well for 24 hours. On the 7th day, the cells were harvested and the incorporation of ^3H-thymidine was measured. Si was calculated by the above mentioned formula 1.

Compound | SI (T-cells) | SI (±S.E) (Monocytes)
CCCCCCCC/C=C\CCCCCCCC(=O)OC(COC(C)=O)COC(=O)CCCCCCCCCCCCCCC (centres unmarked) [Compound 2, 1-palmitoyl-2-oleoyl-3-acetylglycerol] | 2.03 ± 0.54 | 10.42 ± 0.15
CCCCC/C=C\C/C=C\C/C=C\C/C=C\CCCC(=O)OC(COC(C)=O)COC(=O)CCCCCCCCCCCCCCC (centres unmarked) [Compound 5, 1-palmitoyl-2-arachidonoyl-3-acetylglycerol] | 2.02 ± 0.38 | 9.75 ± 0.09
CC/C=C\C/C=C\C/C=C\CCCCCCCC(=O)OC(COC(C)=O)COC(=O)CCCCCCCCCCCCCCC (centres unmarked) [Compound 4, 1-palmitoyl-2-linolenoyl-3-acetylglycerol] | 1.98 ± 0.26 | 10.21 ± 0.18
CCCCCCCC/C=C\CCCCCCCC(=O)OCC(COC(C)=O)OC(=O)CCCCCCCCCCCCCCC (centres unmarked) [Compound 1, 1-oleoyl-2-2palmitoyl-3-acetylglycerol] | 2.01 ± 0.43 | 9.97 ± 0.10
